Format in all cases: cell-based
The test system of assay [1] is HCT116, SW480 and MDA-MB-468 cells. The assay can be described thus: Cell counting during cysteine starvation, starvation-resistant cell lines. The note with it: for cysteine starvation sensitivity on polyamine supplementation: polyamine 20 μM in medium without cysteine. The procedure: (§1) The base medium formulation contained 0.2 mM L-histidine, 0.4 mM L-isoleucine, 0.4 mM L-leucine, 0.4 mM L-lysine, 0.2 mM L-phenylalanine, 0.4 mM L-threonine, 0.08 mM L-tryptophan, 0.4 mM L-valine, 0.2 mM L-arginine, 2 mM L-glutamine, 0.2 mM L-tyrosine, 0.4 mM L-alanine, 0.3 mM L-proline, 0.15 mM L-glutamic acid, 0.1 mM L-aspartic acid, 0.2 mM L-asparagine, and 0.4 mM glycine.
(§2) DAPI-stained cell nuclei were detected via microscopy.
(§3) AMD1 inhibitor sardomozide/SAM486A, GPX4 inhibitor RSL3, and CSE inhibitor beta-cyano-L-alanine were used.
(§4) For experiments using spermine oxidase (SMOX) and polyamine oxidase (PAOX) inhibitors or MTOB, cells were pre-treated with stated concentrations for 16 hours in complete medium. After pre-treatment, cells were washed in PBS, and treatment was continued in complete or cysteine-free medium for stated times. After treatment was finished, cells were fixed and stained as described above. For experiments using MTA, polyamines, GPX4 and CSE inhibitors, treatment started at the same time as cysteine starvation. For experiments involving hypoxic conditions, cells were seeded in normoxic conditions and allowed to adhere for 24 hours before control and cysteine starvation medium was added and cells were immediately transferred either to a humidified cell culture incubator set to 37° C. in 20% O2 (normoxia), or a hypoxia chamber set to 37° C. in 1% O2 (hypoxia) for the stated times. Cells were fixed immediately and stained as described above.

The test system of assay [2] is MTAP-deleted HCT116 cells. The assay can be described thus: Cell counting during cysteine starvation, MTAP-deleted HCT116. An excerpt: [NT] Successfully transfected cells were selected with puromycin and grown as clonal colonies. Clones were selected based initially on MTA efflux measured by liquid chromatography mass spectrometry (LC-MS). Clones with greatest MTA efflux were selected, and methylthioadenosine phosphorylase knockout (MTAP-KO) was then confirmed by western blot. MTAP-KO HCT116 cells were transfected with pCMV-Hygro-MTAP and pCMV-Hygro-negative control vector, selected using hygromycin B, and grown as clonal colonies. Clones were selected based initially on MTA efflux measured by LC-MS. Clones with low MTA efflux were selected, then MTAP re-expression was confirmed by western blot. […] DAPI-stained cell nuclei were detected via microscopy. […] For experiments using spermine oxidase (SMOX) and polyamine oxidase (PAOX) inhibitors or MTOB, cells were pre-treated with stated concentrations for 16 hours in complete medium. After pre-treatment, cells were washed in PBS, and treatment was continued in complete or cysteine-free medium for stated times. After treatment was finished, cells were fixed and stained as described above. For experiments using MTA, polyamines, GPX4 and CSE inhibitors, treatment started at the same time as cysteine starvation. For experiments involving hypoxic conditions, cells were seeded in normoxic conditions and allowed to adhere for 24 hours before control and cysteine starvation medium was added and cells were immediately transferred either to a humidified cell culture incubator set to 37° C. in 20% O2 (normoxia), or a hypoxia chamber set to 37° C. in 1% O2 (hypoxia) for the stated times. Cells were fixed immediately and stained as described above.

For assay [3], the system named is MTAP-expressing HCT116 cells. The assay can be described thus: Cell counting during cysteine starvation, MTAP-expressing HCT116. The conditions noted are these: SMOX inhibitor, PAOX inhibitor or MTOB supplementation. The source says:
[NT] Successfully transfected cells were selected with puromycin and grown as clonal colonies. Clones were selected based initially on MTA efflux measured by liquid chromatography mass spectrometry (LC-MS). Clones with greatest MTA efflux were selected, and methylthioadenosine phosphorylase knockout (MTAP-KO) was then confirmed by western blot. MTAP-KO HCT116 cells were transfected with pCMV-Hygro-MTAP and pCMV-Hygro-negative control vector, selected using hygromycin B, and grown as clonal colonies. Clones were selected based initially on MTA efflux measured by LC-MS. Clones with low MTA efflux were selected, then MTAP re-expression was confirmed by western blot. […] DAPI-stained cell nuclei were detected via microscopy. For experiments using spermine oxidase (SMOX) and polyamine oxidase (PAOX) inhibitors or MTOB, cells were pre-treated with stated concentrations for 16 hours in complete medium. After pre-treatment, cells were washed in PBS, and treatment was continued in complete or cysteine-free medium for stated times. After treatment was finished, cells were fixed and stained as described above. For experiments using MTA, polyamines, GPX4 and CSE inhibitors, treatment started at the same time as cysteine starvation. For experiments involving hypoxic conditions, cells were seeded in normoxic conditions and allowed to adhere for 24 hours before control and cysteine starvation medium was added and cells were immediately transferred either to a humidified cell culture incubator set to 37° C. in 20% O2 (normoxia), or a hypoxia chamber set to 37° C. in 1% O2 (hypoxia) for the stated times. Cells were fixed immediately and stained as described above.

Assay [4] has as its system MDA-MB-231, MIAPaCa-2 and PANC-1 cells. The assay can be described thus: Cell counting during cysteine starvation, starvation-sensitive cell lines. The procedure:
as §1, §2, §3, §4

The subject of assay [5] is MDA-MB-231, PANC-1, and MIAPaCa-2 cells. Kind of assay: CellROX assay on live cells, starvation-sensitive cell lines. The note with it: −Cys, 16 h timepoint. The protocol: (§5) Cells were seeded as described above. Live cells were stained with Hoechst 33342 nuclear stain for 20 min. The medium was removed, and cells were stained in 100 μl medium containing CellTracker™ Green CMFDA Dye and Hoechst stain for 40 min. The cells were then washed with PBS, and 300 μl of the relevant experimental medium was added for 1 hour. Then, CellROX® Deep Red was spiked into the medium, and the cells were incubated for 40 min. The medium was removed, the cells were washed with PBS, and new relevant experimental medium including CellROX was added. The cells were imaged using an Operetta automated microscope platform set to 37° C. in 5% CO2 every hour for 16-24 hours. I

The test system is the same in assay [6]. The assay can be described thus: LC-MS analysis with labelled methionine (polyamine and TsP labelling). The conditions noted are these: 20 μM sardomozide or 0.1 mM MTOB. The procedure:
For experiments using labelled methionine, the same basic protocol was used as described for the steady state metabolite measurements described above. Experimental media were formulated lacking methionine or serine (described above) and supplemented with the stated concentrations of ^13C5^15N1-methionine, ^13C3^15N1-serine or ^34S1-methionine. Metabolites were extracted as described above.
Prepared samples were analyzed on an LC-MS platform consisting of an Accela™ 600 LC system and an Exactive™ mass spectrometer. A Sequant® ZIC®-HILIC column (4.6 mm×150 mm, 3.5 μm) was used to separate the metabolites with the mobile phase using A=0.1% (v/v) formic acid in water and B=0.1% (v/v) formic acid in acetonitrile. A gradient program starting at 20% of A and linearly increasing to 80% at 30 min was used followed by washing (92% of A for 5 mins) and re-equilibration (20% of A for 10 min) steps. The total run time of the method was 45 min. The LC stream was desolvated and ionized in the HESI probe. The Exactive™ mass spectrometer was operated in full scan mode over a mass range of 70-1,200 m/z at a resolution of 50,000 with polarity switching. The LC-MS raw data was converted into mzML files by using ProteoWizard and imported to MZMine 2.10 for peak extraction and sample alignment. An in-house database including all possible ^13C and ^15N isotopic m/z values of the relevant metabolites was used for the assignment of LCMS signals. Finally the peak areas were used for comparative quantification.

Assay [7] deals with breast, colorectal and pancreatic cancer cell lines. Kind of assay: Cell counting in complete or cysteine-free medium, cell lines not given. The conditions noted are these: AMD1 inhibitor or MTOB supplementation. The protocol: as §1, §2, §3, §4
In another assay the test system is cysteine starved cells. Kind of assay: CellROX assay on live cells supplemented with polyamines. The conditions noted are these: polyamine 20 μM in medium without cysteine. The protocol:
as §5

Structures are written as SMILES. “Also recorded” adds a separate entry of the source.

For `C=C=CCNCCCCNCC=C=C` [MDL 72527], in assay [1] (SMOX and PAOX inhibitors with spermidine or spermine, −Cys), the “cell survival and growth under polyamine treatment concurrent with cysteine starvation” value is “restored HCT116, SW480, and MDA-MB-468 cell survival and growth”. In assay [1] (SMOX or PAOX inhibitor, 16 h pre-treatment then −Cys), the “advantage during cysteine starvation” value is “little or no additional advantage”. Besides, in assay [2] (SMOX inhibitor, PAOX inhibitor or MTOB supplementation), the “cell survival during cysteine starvation” value is on record as “rescued cell survival”. For the same compound, the “impact on cell survival during cysteine starvation” value in assay [3] is listed as “little impact”. In addition, in assay [4] (SMOX inhibitor 50 μM or PAOX inhibitor 10, 40, 80 μM, 16 h pre-treatment then −Cys), the “cell death during cysteine starvation” value is recorded as “prevented cell death”. For the same compound, the “ROS levels (CellROX staining intensity)” value in assay [5] (50 μM SMOX inhibitor) is on record as “allowed cells to maintain lower ROS levels”.
On to `N=C(N)N/N=C1\CCc2c(C(=N)N)cccc21` [sardomozide], for which, in assay [6], the “levels of TsP intermediates” value was “did not appreciably increase”; the “polyamine synthesis (dc-SAM and polyamine labelling)” value is listed as “marked inhibition of polyamine synthesis”. In addition, the “cell survival in response to cysteine starvation” value in assay [2] (AMD1 inhibitor) is listed as “restored cell survival”. The “duration of rescue from cysteine starvation” value in assay [7] was “temporary”. In addition, the “cell death in response to cysteine starvation” value in assay [4] (AMD1 inhibitor pre-treatment 16 h) was “prevented cell death”. For the same compound, the “ROS levels (CellROX staining intensity)” value in assay [5] (20 μM AMD1 inhibitor) is given as “diminished ROS levels”.
For the compound `NCCCCNCCCN` [spermidine], in assay [1], the “cysteine starvation sensitivity on polyamine supplementation” value is on record as “dramatic impact; also recorded: dramatically sensitized cells to cysteine starvation”. Moreover, the “ROS levels (CellROX deep red)” value in the assay with cysteine starved cells is listed as “rapid increase in ROS levels; also recorded: increased cellular ROS levels”.
For `NCCCNCCCCNCCCN` [spermine], in assay [1], the “cysteine starvation sensitivity on polyamine supplementation” value is “dramatic impact; also recorded: dramatically sensitized cells to cysteine starvation”. For the same compound, the “ROS levels (CellROX deep red)” value in the assay on cysteine starved cells was “rapid increase in ROS levels; also recorded: increased cellular ROS levels”.

The record behind these values is patent publication US12109184B2, “Personalized methods of treating cancer” (CANCER RESEARCH TECHNOLOGY LIMITED, priority 2020, dated 2024).
